Measurements as given in patent US20240316136A1, “ANESTHETIC METHOD OF SPOTTED SEABASS WITH PLANT ESSENTIAL OILS” (Shanghai Ocean University, priority 2024, published 2024).

Experiments:
Format in all cases: in vivo, Lateolabrax maculatus
[1] = tested on: spotted seabass; experiment: Sedation, anesthesia induction and resuscitation time of spotted seabass in anesthetic bath; parameters: key to Stage IV (deep anesthesia) time / Resuscitation time / Stage I (light sedation) time / Stage II (deep sedation) time / Stage III (light anesthesia) time: —: No anesthetic effect
Experimental: • 1. Healthy spotted seabass with uniform sizes and uniform respiration rates were selected and acclimated for 24 h. During the acclimatization period, the water temperature was 22±1° C., the salinity was 16%, the dissolved oxygen was 6 mg/L, pH was 7.5, and the fish-water ratio was 1:50. The metabolic wastes of the spotted seabass were discharged during acclimatization period. • 2. The emulsified Cinnamomum camphora essential oils were added to the aquariums respectively. The water temperature was controlled at 22±1° C. […] The spotted seabass were transferred to aquariums (5 fish per aquarium) with different concentrations of the Cinnamomum camphora essential oil, MS-222 and linalool anesthetics, and anesthetic concentrations, sedation concentrations and duration of anesthesia were recorded for the spotted seabass. • 4. The fish were extracted once deep anesthesia was achieved. Recovery was defined as the restoration of fish to their typical swimming behavior; the resuscitation time of the spotted seabass were recorded. • 5. The optimal concentration range was obtained, and oxidative stress and tissue injury were measured. [table] One-way analysis of variance (ANOVA) was used to evaluate the data (anesthetic induction and recovery time) using SPSS 26.0 software (SPSS Inc., Chicago, IL, USA). The significant variation was determined using Duncan's multiple range test (P<0.05). Graphs were created using Origin software.

[2] = tested on: spotted seabass gill tissue; experiment: Gill tissue histopathology by light microscope after anesthesia
Experimental: • 1. Healthy spotted seabass with uniform sizes and uniform respiration rates were selected and acclimated for 24 h. During the acclimatization period, the water temperature was 22±1° C., the salinity was 16%, the dissolved oxygen was 6 mg/L, pH was 7.5, and the fish-water ratio was 1:50. The metabolic wastes of the spotted seabass were discharged during acclimatization period. • 2. The emulsified Cinnamomum camphora essential oils were added to the aquariums respectively. The water temperature was controlled at 22±1° C. The concentrations of the emulsified Cinnamomum camphora essential oil were 10, 20, 30, 50, 100, 150, 200 mg/L, respectively, and the same concentrations of MS-222 anesthesia solution and linalool solution were prepared at the same time. • 3. The spotted seabass were transferred to aquariums (5 fish per aquarium) with different concentrations of the Cinnamomum camphora essential oil, MS-222 and linalool anesthetics, and anesthetic concentrations, sedation concentrations and duration of anesthesia were recorded for the spotted seabass. • 4. The fish were extracted once deep anesthesia was achieved. Recovery was defined as the restoration of fish to their typical swimming behavior; the resuscitation time of the spotted seabass were recorded. • 5. The optimal concentration range was obtained, and oxidative stress and tissue injury were measured. […]

[3] = tested on: spotted seabass; experiment: Blood biochemical analysis (RBC, HCT, HGB)
Experimental: (§1) In accordance with the principles and guiding regulations established by the Animal Protection and Utilization Committee of Shanghai Ocean University (SHOU-DW-2022-059), 200 mg/L MS-222 was used to anesthetize fish. Venous-arterial blood samples were obtained from the caudal vein using a 1 mL syringe with 10% EDTA as an anticoagulant and then preserved in anticoagulation tubes. In addition, another portion of the blood was collected without anticoagulant, then kept at 4° C. for a duration of 12 hours for stationary. The coagulated blood was centrifuged at 4000×g for 20 min at 4° C. The serum was extracted and placed in the refrigerator at −40° C. for testing.
Red blood cell count (RBC), haematocrit (HCT), and hemoglobin (HGB) in blood samples were measured in a Myriad Veterinary Automatic Blood Cell Analyser (BC-2800vet, Shenzhen, China).

[4] = tested on: spotted seabass; experiment: Energy metabolism indexes (glucose, lactic acid); conditions: after anesthesia; comparison between anesthetic groups, P<0.05
Experimental: as §1
(§2) Acid phosphatase (ACP), glucose (GLU) and lactic acid (LD) kits (Nanjing Jiancheng Bioengineering Institute, Nanjing, China) were used to measure ACP, GLU and LD levels.

[5] = tested on: spotted seabass; experiment: Oxidative stress indicators (SOD, CAT, GSH-Px) in blood
Experimental: as §1
Superoxide Dismutase (SOD), Catalase (CAT) and Glutathione Peroxidase (GSH-Px) kits (Nanjing Jiancheng Bioengineering Institute, Nanjing, China) were used to determine SOD, CAT and GSH-Px activities in blood.

[6] = tested on: spotted seabass; experiment: Immunological indicators (ACP/AKP, IgM, LZM) in serum
Experimental: as §1, §2
Lysozyme (LZM) activity was determined by the method of De Souza et al. Serum immunoglobulin M (IgM) concentration was measured using a fish ELISA kit (Nanjing Jiancheng Bioengineering Institute, Nanjing, China).

[7] = after 24 h of recovery, vs initial values, p<0.05
[8] = after 24 h of recovery, vs initial

Structure (SMILES): CCOC(=O)c1cccc(N)c1.CS(=O)(=O)O [MS-222, tricaine methanesulfonate]
- Resuscitation time ([1]; 5 mg/L in water): —
- Stage I (light sedation) time ([1]; 5 mg/L in water): —
- Stage II (deep sedation) time ([1]; 5 mg/L in water): —
- Stage III (light anesthesia) time ([1]; 5 mg/L in water): —
- Stage IV (deep anesthesia) time ([1]; 5 mg/L in water): —
- Resuscitation time ([1]; 10 mg/L in water): —
- Stage I (light sedation) time ([1]; 10 mg/L in water): 90.67 ± 2.08 s
- Stage II (deep sedation) time ([1]; 10 mg/L in water): —
- Stage III (light anesthesia) time ([1]; 10 mg/L in water): —
- Stage IV (deep anesthesia) time ([1]; 10 mg/L in water): —
- Resuscitation time ([1]; 20 mg/L in water): —
- Stage I (light sedation) time ([1]; 20 mg/L in water): 73.67 ± 5.86 s
- Stage II (deep sedation) time ([1]; 20 mg/L in water): 111.67 ± 2.08 s
- Stage III (light anesthesia) time ([1]; 20 mg/L in water): —
- Stage IV (deep anesthesia) time ([1]; 20 mg/L in water): —
- Resuscitation time ([1]; 30 mg/L in water): —
- Stage I (light sedation) time ([1]; 30 mg/L in water): 59.00 ± 3.00 s
- Stage II (deep sedation) time ([1]; 30 mg/L in water): 102.33 ± 2.52 s
- Stage III (light anesthesia) time ([1]; 30 mg/L in water): 122.67 ± 2.52 s
- Stage IV (deep anesthesia) time ([1]; 30 mg/L in water): —
- Resuscitation time ([1]; 50 mg/L in water): 217.00 ± 2.00 s
- Stage I (light sedation) time ([1]; 50 mg/L in water): 39.67 ± 2.52 s
- Stage II (deep sedation) time ([1]; 50 mg/L in water): 64.00 ± 3.61 s
- Stage III (light anesthesia) time ([1]; 50 mg/L in water): 83.00 ± 3.00 s
- Stage IV (deep anesthesia) time ([1]; 50 mg/L in water): 185.00 ± 4.36 s
- Resuscitation time ([1]; 100 mg/L in water): 240.00 ± 2.00 s
- Stage I (light sedation) time ([1]; 100 mg/L in water): 30.00 ± 3.00 s
- Stage II (deep sedation) time ([1]; 100 mg/L in water): 41.00 ± 4.58 s
- Stage III (light anesthesia) time ([1]; 100 mg/L in water): 70.67 ± 4.04 s
- Stage IV (deep anesthesia) time ([1]; 100 mg/L in water): 174.00 ± 4.58 s
- Resuscitation time ([1]; 150 mg/L in water): 290.33 ± 3.06 s
- Stage I (light sedation) time ([1]; 150 mg/L in water): 20.67 ± 2.52 s
- Stage II (deep sedation) time ([1]; 150 mg/L in water): 35.00 ± 2.00 s
- Stage III (light anesthesia) time ([1]; 150 mg/L in water): 63.00 ± 3.61 s
- Stage IV (deep anesthesia) time ([1]; 150 mg/L in water): 147.67 ± 2.52 s
- Resuscitation time ([1]; 200 mg/L in water): 349.33 ± 3.06 s
- Stage I (light sedation) time ([1]; 200 mg/L in water): 19.67 ± 2.52 s
- Stage II (deep sedation) time ([1]; 200 mg/L in water): 29.67 ± 2.52 s
- Stage III (light anesthesia) time ([1]; 200 mg/L in water): 55.33 ± 2.08 s
- Stage IV (deep anesthesia) time ([1]; 200 mg/L in water): 140.33 ± 2.08 s
- Optimal anesthetic concentration ([1]; criterion: induction in around 3 min and recovery within 5 min): 100 mg/L
- Concentration showing deep sedation ([1]; in vivo): 20 mg/L
- Concentration showing light anesthesia effect (Stage III) ([1]; in vivo): 30 mg/L
- Concentration showing light sedation effect (Stage I) ([1]; in vivo): 10 mg/L
- Minimum concentration required to achieve profound anesthesia (Stage IV) ([1]; in vivo, iv): 50 mg/L
- Gill tissue histopathological changes [2]: chloride cells underwent significant proliferation
- Percentage of hematocrit [3, 7]: lower
- Red blood cell count (RBC) [3, 7]: higher
- Percentage of hematocrit ([3]; after deep anesthesia, comparison between anesthetic groups, p<0.05): higher
- Hemoglobin concentration ([3]; in vivo): higher
- Red blood cell count (RBC) ([3]; in vivo): higher
- Glucose concentration [4]: Greater
- CAT activity [5, 8]: recovered to the initial values
- SOD activity [5, 8]: recovered to the initial values
- SOD, CAT and GSH-Px activities ([5]; after anesthesia): increasing trend
- IgM concentration ([6]; after anesthesia): decreased
- LZM activity ([6]; after anesthesia, change from initial): decreased
- AKP activity ([6]; on exposure to anesthetic): increased
